This passage reports GI50 and TGI results from PubChem BioAssay (NCI).

Some test systems named below: PC-3 prostate; SK-MEL-5 melanoma; HCT-116 colon; SW-620 colon; IGROV1 ovarian; CAKI-1 renal; SK-OV-3 ovarian; UACC-257 melanoma; LOX IMVI melanoma; OVCAR-8 ovarian.
Test in all cases: NCI tumour cell line growth inhibition, 48 h

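Where inhibition never reached the appropriate level, the endpoint shown equals the highest concentration tested. Otherwise, values were interpolated linearly from a five-concentration, 48-hour dose response in 96-well plates. The concentration for 50% growth inhibition is given as GI50. TGI marks complete inhibition of growth.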

With `Nc1nccc(-c2c(-c3ccc(F)cc3)nn3cc(C(F)(F)F)ccc23)n1`, the GI50 in the experiment on PC-3 prostate, with SK-MEL-5 melanoma, with HCT-116 colon, in the experiment with SW-620 colon, with IGROV1 ovarian and in the experiment on CAKI-1 renal was above 25 µM in each case. Besides, the GI50 in the experiment on SK-OV-3 ovarian, in the experiment on UACC-257 melanoma, in the experiment on LOX IMVI melanoma and with OVCAR-8 ovarian was above 25 µM in each case. In addition, the TGI in the experiment with PC-3 prostate, with SK-MEL-5 melanoma, in the experiment on HCT-116 colon, in the experiment on SW-620 colon, in the experiment on IGROV1 ovarian and in the experiment with CAKI-1 renal was above 25 µM each time. In addition, the TGI with SK-OV-3 ovarian, in the experiment with UACC-257 melanoma, in the experiment with LOX IMVI melanoma and in the experiment with OVCAR-8 ovarian was above 25 µM each time.
As to `ClCCOCCn1cnc2c(Cl)nc(Cl)nc21`, the GI50 with PC-3 prostate is 14 µM; in the experiment on SK-MEL-5 melanoma, 12.5 µM; in the experiment with HCT-116 colon, 10.8 µM; in the experiment on SW-620 colon, 6.36 µM; in the experiment on IGROV1 ovarian, 3.34 µM; in the experiment on CAKI-1 renal, 2.61 µM. Besides, the GI50 was 16.2 µM in the experiment with SK-OV-3 ovarian, 14.1 µM in the experiment on UACC-257 melanoma, 5.96 µM with LOX IMVI melanoma and 10.3 µM with OVCAR-8 ovarian. The TGI with PC-3 prostate worked out at 31.5 µM; with SK-MEL-5 melanoma, 25.5 µM; with HCT-116 colon it was 25.1 µM; in the experiment on SW-620 colon it was 20.3 µM; with IGROV1 ovarian it was 12.7 µM; in the experiment on CAKI-1 renal, 13.5 µM. Besides, the TGI in the experiment on SK-OV-3 ovarian came to 29.8 µM; in the experiment on UACC-257 melanoma, 28.5 µM; with LOX IMVI melanoma it was 20.1 µM; in the experiment with OVCAR-8 ovarian it was 26.5 µM.
`CC(C)Cc1ccc(C(C)/C=C2\CCC(CN(C)C)C2=O)cc1` (stereo not given): the TGI in the experiment on PC-3 prostate was determined as 22.4 µM; in the experiment on SK-MEL-5 melanoma, 19.4 µM; with HCT-116 colon, 23.1 µM; in the experiment with SW-620 colon it was 17.4 µM; in the experiment with IGROV1 ovarian it was 18 µM; with CAKI-1 renal, 32.7 µM. Also, the TGI in the experiment on SK-OV-3 ovarian turned out to be 36.5 µM; in the experiment on UACC-257 melanoma, 30 µM; in the experiment on LOX IMVI melanoma it was 15.6 µM; with OVCAR-8 ovarian it was 19 µM.
As for `CC(=O)NC1C(O[C@H]2C[C@H]3[C@@H]4CC=C5C[C@@H](O)CC[C@]5(C)[C@H]4CC[C@]3(C)[C@H]2[C@H](C)C(=O)CCC(C)C)OCC(O)C1O` (stereo not given in full), the GI50 is 2.05 µM in the experiment with PC-3 prostate; 1.85 µM in the experiment with SK-MEL-5 melanoma; 1.39 µM in the experiment with HCT-116 colon; 3.21 µM in the experiment with SW-620 colon; 3.37 µM in the experiment with IGROV1 ovarian; 1.53 µM in the experiment with CAKI-1 renal. Moreover, the GI50 in the experiment with SK-OV-3 ovarian is 2.01 µM; in the experiment on UACC-257 melanoma it was 1.4 µM; in the experiment on LOX IMVI melanoma, 1.45 µM; with OVCAR-8 ovarian, 15.7 µM. The TGI was 10.3 µM in the experiment on PC-3 prostate; 6.49 µM with SK-MEL-5 melanoma; 5.82 µM in the experiment on HCT-116 colon; 9.78 µM with SW-620 colon; above 42.5 µM with IGROV1 ovarian; 6.75 µM in the experiment on CAKI-1 renal. Also, the TGI in the experiment on SK-OV-3 ovarian was 8.39 µM; in the experiment with UACC-257 melanoma, 3.55 µM; in the experiment with LOX IMVI melanoma, 5.79 µM; in the experiment on OVCAR-8 ovarian it was above 42.5 µM.
For the compound `O=C(O)CN(CCN(CC(=O)O)CC(=O)O)CC(=O)O.[Mn+2]`, the GI50 in the experiment with PC-3 prostate, with SK-MEL-5 melanoma, with HCT-116 colon, with SW-620 colon, with IGROV1 ovarian and in the experiment with CAKI-1 renal was above 100 µM throughout. Besides, the GI50 in the experiment with SK-OV-3 ovarian, in the experiment with UACC-257 melanoma, in the experiment with LOX IMVI melanoma and in the experiment on OVCAR-8 ovarian was above 100 µM each time. Further, the TGI in the experiment on PC-3 prostate, in the experiment with SK-MEL-5 melanoma, in the experiment with HCT-116 colon, in the experiment on SW-620 colon, in the experiment on IGROV1 ovarian and with CAKI-1 renal was above 100 µM throughout. Further, the TGI in the experiment on SK-OV-3 ovarian, in the experiment on UACC-257 melanoma, in the experiment on LOX IMVI melanoma and in the experiment on OVCAR-8 ovarian was above 100 µM in each case.
Consider `[O]=[V]([OH])([OH])[OH]`, for which the GI50 in the experiment on PC-3 prostate is above 100 µM; in the experiment on SK-MEL-5 melanoma it was above 100 µM; with HCT-116 colon it was above 100 µM; with SW-620 colon, above 100 µM; in the experiment with IGROV1 ovarian it was above 100 µM; with CAKI-1 renal, 25.6 µM. Also, the GI50 with SK-OV-3 ovarian, in the experiment with UACC-257 melanoma, with LOX IMVI melanoma and in the experiment with OVCAR-8 ovarian was above 100 µM throughout. For the same compound, the TGI with PC-3 prostate is above 100 µM; in the experiment with SK-MEL-5 melanoma, above 100 µM; in the experiment on HCT-116 colon, above 100 µM; with SW-620 colon, above 100 µM; in the experiment on IGROV1 ovarian it was above 100 µM; with CAKI-1 renal it was 70.6 µM. Also, the TGI in the experiment with SK-OV-3 ovarian, with UACC-257 melanoma, with LOX IMVI melanoma and in the experiment on OVCAR-8 ovarian was above 100 µM in each case.
`CCSCC1CC(O)(c2ccccc2)C(c2ccccc2)C(c2ccc(F)cc2)O1` (stereo not given): the GI50 in the experiment with PC-3 prostate was 1.95 µM; in the experiment with SK-MEL-5 melanoma, 1.47 µM; in the experiment with HCT-116 colon, 1.47 µM; in the experiment with SW-620 colon, 1.81 µM; with IGROV1 ovarian it was 2.68 µM; in the experiment on CAKI-1 renal, 1.58 µM. In addition, the GI50 in the experiment with SK-OV-3 ovarian is 2.7 µM; in the experiment on UACC-257 melanoma, 2.1 µM; in the experiment with LOX IMVI melanoma it was 1.61 µM; with OVCAR-8 ovarian it was 2.64 µM. Further, the TGI worked out at 9.06 µM in the experiment with PC-3 prostate; 2.82 µM in the experiment on SK-MEL-5 melanoma; 3.22 µM in the experiment on HCT-116 colon; 4.32 µM in the experiment with SW-620 colon; 7.12 µM with IGROV1 ovarian; 3.48 µM in the experiment on CAKI-1 renal. In addition, the TGI with SK-OV-3 ovarian turned out to be 9.15 µM; with UACC-257 melanoma it was 4.88 µM; in the experiment with LOX IMVI melanoma, 3 µM; in the experiment with OVCAR-8 ovarian it was 8.54 µM.
